Like-named read-outs stand apart in the source and are kept apart here.
What was measured:
[1] = target: T1, CTX-M-15 (Escherichia coli, UniProt Q9EXV5); assay: biochemical
Description: (§5) A reversible two-step inhibition model was fit to the data.
(§6) Pseudo-first-order rate constants of enzyme inactivation (kobs) were determined in the presence of various inhibitor concentrations by fitting equation 2 to the time courses.(2) P=Vst+(V0−Vs)(1−e^−kt)/k where P is product, Vs is rate at steady state, t is time, V0 is initial velocity, and k is rate of inactivation. A plot of kobs versus the inhibitor concentrations generated a linear plot with a slope of (k2/Ki) and a y intercept of k−2 (equation 3). The reported values were corrected for the substrate concentration and the Km for each substrate-enzyme combination, as defined by the 1 + ([S]/Km) term in equation 4, where S is the substrate concentration, used to obtain the second-order rate constant k2/Ki and the off rate (k−2). The error values reported are standard errors from the fit.(3) kobs=k−2+(k2/Ki)[I]/[1+([S]/Km)]
(§7) The percentage of enzyme activity at each assay point was determined by comparison to the activity of the enzyme in the absence of inhibitor, and the recovery of enzymatic activity was fit to a single exponential with the associated standard deviation.

[2] = target: T2, KPC-2 (Klebsiella pneumoniae, UniProt Q9F663); assay: biochemical
Description: as §5, §6, §7

[3] = target: T3, P99 AmpC (Enterobacter cloacae, UniProt P05364); assay: biochemical
Description: as §5, §6, §7

[4] = target: T3, P99 AmpC; conditions: half-life of active-site occupancy
Description: as §5, §6, §7

[5] = target: IMP-1 (Serratia marcescens, UniProt P52699); assay: Inhibition assay, nitrocefin substrate; conditions: class B
[6] = tested on: serine β-lactamases (SBLs); assay: Kinetic parameters and Ki, ranges over serine β-lactamases; conditions: CTX-M-15, P99 AmpC, and KPC-2
Description: as §5, §6, §7

[7] = target: OXA-48 (Klebsiella pneumoniae, UniProt Q6XEC0); assay: Ki* determination, imipenem substrate
Description: as §6

[8] = target: T2, KPC-2; conditions: half-life of active-site occupancy
Description: as §5, §6, §7

[9] = tested on: VIM-2 and NDM-1 metallo-β-lactamases; assay: Inhibition of VIM-2 and NDM-1 MBLs (modality, reversibility, range); conditions: up to 50 μM
[10] = target: T1, CTX-M-15; conditions: half-life of active-site occupancy
Description: as §5, §6, §7

[11] = target: VIM-2 (Escherichia coli, UniProt Q5U7L7); assay: Steady-state competitive inhibition, nitrocefin substrate
[12] = target: NDM-1 (Klebsiella pneumoniae, UniProt C7C422); assay: Steady-state competitive inhibition, cefotaxime substrate
[13] = tested on: P. aeruginosa clinical isolates; assay: microbe, parasite or virus in culture; assay type: cell-based, Pseudomonas aeruginosa
Description: (§1) The antibacterial activity of the cephalosporins alone was included to ascertain the level of potentiation by the partnered BLI. BLIs were tested at a fixed concentration of 4 μg/ml in all combinations except cefepime-tazobactam, where tazobactam was fixed at a concentration of 8 μg/ml ([38]).
(§2) The in vitro antibacterial activity of the β-lactams alone or in combination with the BLIs was determined in cation-adjusted Mueller-Hinton broth (CAMHB) microdilution assays according to CLSI recommendations ([51]). […] The inocula for the broth microdilution assays were prepared by the broth culture method ([51]).

[14] = tested on: E. coli, K. pneumoniae, and P. aeruginosa reference type isolates; assay: MIC against panel of seven reference type isolates; assay type: cell-based
Description: […]. This panel encompassed 3 E. coli, 2 K. pneumoniae, and 2 P. aeruginosa isolates and included four quality control (QC) isolates for broth microdilution ([37]). […]. Among the β-lactamase-producing Enterobacterales isolates, E. coli NCTC 13353 producing CTX-M-15 and K. pneumoniae BAA-1705 producing KPC-2 are routine QC isolates used for the testing of cefepime-taniborbactam ([37]). […].
(§3) The in vitro antibacterial activity of the β-lactams alone or in combination with the BLIs was determined in cation-adjusted Mueller-Hinton broth (CAMHB) microdilution assays according to CLSI recommendations ([51]). […]. The inocula for the broth microdilution assays were prepared by the broth culture method ([51]). […]

[15] = tested on: E. coli DH5α producing individual β-lactamases; assay: Broth microdilution MIC in engineered strains (BLI fixed at 4 μg/ml); assay type: cell-based, Escherichia coli; conditions: panel of 34 strains
Description: The spectrum of antibacterial activity of cefepime-taniborbactam and the breadth of inhibitory activity of this next-generation cyclic boronate BLI were assessed in 34 engineered E. coli strains each overproducing an individual β-lactamase and directly compared to those of the clinically approved agent ceftazidime-avibactam. In this manner, the antibacterial activity of the BL-BLI combinations relative to that of the partnered cephalosporins alone provided a quantitative measure of β-lactam potentiation that directly reflects the levels of inhibition of β-lactamase function achieved by addition of BLI. The BLI concentration was fixed at 4 μg/ml, as described in Materials and Methods.
The isogenic strains were used to establish a spectrum of inhibitory activity against 34 β-lactamases that were engineered into E. coli DH5α cells carrying chromosomal AmpC (ESC-1), a non-ESBL enzyme unable to hydrolyze these third- or fourth-generation cephalosporins. […]. The DNA fragments containing the promoter, the signal sequence, and each β-lactamase-coding gene were synthesized and cloned into pTwist Chlor High Copy in DH5α at Twist Bioscience. The individual expression plasmids along with their GenBank accession numbers are listed in Table S2 in the supplemental material and below. The protein sequences of β-lactamases were obtained from the Beta-Lactamase DataBase (www.bldb.eu) ([47]). Expression of the β-lactamases was confirmed by verifying decreased susceptibility to example test antibiotics that are known substrates of the enzymes. E. coli DH5α carrying pTU501, which expressed only the TEM-1 signal sequence from the bla promoter, was used as a control. The plasmid sequences are available through GenBank (Table S2).
as §3

[16] = target: SHV-5 (Klebsiella pneumoniae, UniProt P0A3M1); assay: Ki* determination, cefotaxime substrate
Description: as §6

[17] = tested on: P. aeruginosa; assay: microbe, parasite or virus in culture; assay type: cell-based; conditions: Pseudomonas aeruginosa, read-out: MIC
Description: (§4) The antibacterial activity of cefepime-taniborbactam was compared to that of ceftazidime-avibactam, ceftolozane-tazobactam, and cefepime-tazobactam against a diverse panel of Enterobacterales and P. aeruginosa clinical isolates with defined β-lactamase subtypes (see Table S1 in the supplemental material). IMP-producing strains were excluded, as none of the BLI-protected cephalosporins inhibited IMP sufficiently to provide a clinically relevant rescue of the partner β-lactam, a characteristic also shared by approved BLI-protected carbapenems (meropenem-vaborbactam and imipenem-relebactam). […] The antibacterial activity of the cephalosporins alone was included to ascertain the level of potentiation by the partnered BLI. BLIs were tested at a fixed concentration of 4 μg/ml in all combinations except cefepime-tazobactam, where tazobactam was fixed at a concentration of 8 μg/ml ([38]). The collection comprised 143 clinical isolates collected from 2005 and 2018.
as §3

[18] = tested on: E. coli; assay: microbe, parasite or virus in culture; assay type: cell-based; conditions: Escherichia coli, read-out: MIC
Description: as §4, §3

[19] = tested on: K. pneumoniae; assay: microbe, parasite or virus in culture; assay type: cell-based; conditions: Klebsiella pneumoniae, read-out: MIC
Description: as §4, §3

[20] = tested on: DrugMatrixScreen panel of pharmacological targets; assay: DrugMatrixScreen panel (binding, enzymatic, uptake assays; Eurofins/Panlabs); conditions: 100 μM
[21] = tested on: Enterobacterales clinical isolates; assay: MIC distributions in panels of clinical isolates (MIC50, MIC90, % susceptible); assay type: cell-based
Description: as §1, §2

T2 sequence (Q9F663 25-293, looked up, species assumed): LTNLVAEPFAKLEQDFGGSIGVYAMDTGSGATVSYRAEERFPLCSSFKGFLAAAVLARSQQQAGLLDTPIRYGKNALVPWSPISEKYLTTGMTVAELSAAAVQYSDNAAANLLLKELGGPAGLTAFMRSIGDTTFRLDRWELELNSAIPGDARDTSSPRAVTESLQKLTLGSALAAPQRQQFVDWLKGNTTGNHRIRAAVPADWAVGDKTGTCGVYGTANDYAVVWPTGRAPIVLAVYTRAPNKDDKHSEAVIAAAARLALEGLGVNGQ
T1 sequence (Q9EXV5 29-291, species assumed): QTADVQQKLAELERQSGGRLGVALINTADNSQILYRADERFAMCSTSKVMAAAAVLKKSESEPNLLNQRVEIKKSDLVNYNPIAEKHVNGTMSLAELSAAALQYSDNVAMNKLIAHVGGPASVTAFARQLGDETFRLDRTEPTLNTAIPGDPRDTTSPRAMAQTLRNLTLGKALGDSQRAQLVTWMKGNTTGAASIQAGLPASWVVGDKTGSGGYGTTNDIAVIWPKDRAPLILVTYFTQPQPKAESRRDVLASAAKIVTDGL
Chain of IMP-1 (P52699 19-246 limits assumed): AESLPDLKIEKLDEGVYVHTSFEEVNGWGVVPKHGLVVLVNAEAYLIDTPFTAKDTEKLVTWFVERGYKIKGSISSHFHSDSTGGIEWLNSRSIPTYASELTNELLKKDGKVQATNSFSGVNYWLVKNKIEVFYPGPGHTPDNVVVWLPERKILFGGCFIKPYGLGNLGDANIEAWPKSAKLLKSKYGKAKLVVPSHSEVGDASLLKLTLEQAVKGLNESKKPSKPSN
T3 sequence (P05364 21-381): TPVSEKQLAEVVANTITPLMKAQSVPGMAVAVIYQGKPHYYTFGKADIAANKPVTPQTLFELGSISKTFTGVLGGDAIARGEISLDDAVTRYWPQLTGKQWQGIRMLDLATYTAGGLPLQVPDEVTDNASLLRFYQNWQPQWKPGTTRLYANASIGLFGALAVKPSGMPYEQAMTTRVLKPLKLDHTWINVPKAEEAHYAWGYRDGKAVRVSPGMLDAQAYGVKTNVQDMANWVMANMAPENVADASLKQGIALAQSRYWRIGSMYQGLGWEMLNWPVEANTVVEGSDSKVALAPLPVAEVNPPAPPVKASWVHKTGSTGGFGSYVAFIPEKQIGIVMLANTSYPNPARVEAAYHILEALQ
Chain of NDM-1 (C7C422 29-270, looked up, species assumed): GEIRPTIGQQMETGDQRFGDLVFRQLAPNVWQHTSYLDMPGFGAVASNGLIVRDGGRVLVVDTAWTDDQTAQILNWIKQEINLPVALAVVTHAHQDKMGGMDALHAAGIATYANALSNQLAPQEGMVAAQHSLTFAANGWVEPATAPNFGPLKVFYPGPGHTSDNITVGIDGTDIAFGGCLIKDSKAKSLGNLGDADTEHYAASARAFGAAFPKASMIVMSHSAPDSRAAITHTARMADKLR
Chain of OXA-48 (Q6XEC0 23-265, looked up, species assumed): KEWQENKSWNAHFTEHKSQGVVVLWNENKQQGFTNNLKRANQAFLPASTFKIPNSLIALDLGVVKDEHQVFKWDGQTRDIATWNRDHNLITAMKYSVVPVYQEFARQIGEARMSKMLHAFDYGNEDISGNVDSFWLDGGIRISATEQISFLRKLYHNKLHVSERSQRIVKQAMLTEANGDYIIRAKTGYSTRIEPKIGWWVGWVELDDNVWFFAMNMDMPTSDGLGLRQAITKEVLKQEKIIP
Chain of SHV-5 (P0A3M1 22-286): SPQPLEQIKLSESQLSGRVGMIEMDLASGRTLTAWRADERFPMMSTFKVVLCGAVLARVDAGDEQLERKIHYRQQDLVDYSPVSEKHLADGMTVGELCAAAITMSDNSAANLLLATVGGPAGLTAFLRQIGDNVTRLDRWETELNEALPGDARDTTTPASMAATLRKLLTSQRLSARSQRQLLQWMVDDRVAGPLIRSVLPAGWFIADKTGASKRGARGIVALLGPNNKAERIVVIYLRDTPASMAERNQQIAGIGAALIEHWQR

SMILES: O=C(O)C[C@@H]1CC[C@H](NC(=O)Cc2cccs2)B(O)O1 [Vaborbactam]
- Ki [1]: 158 ± 6 nM
- koff [1]: 0.0023 ± 9e-05 s⁻¹
- kinact/KI ([1]; pH 7, read-out: k2/Ki): 1100 ± 100 M⁻¹ s⁻¹
- Ki [2]: 22 ± 2 nM
- koff [2]: 0.00054 ± 5e-05 s⁻¹
- kinact/KI ([2]; pH 7, read-out: k2/Ki): 1200 ± 100 M⁻¹ s⁻¹
- Ki [3]: 53 ± 4 nM
- koff [3]: 0.00037 ± 3e-05 s⁻¹
- kinact/KI ([3]; pH 7, read-out: k2/Ki): 1800 ± 100 M⁻¹ s⁻¹
- t1/2 [4]: 32 ± 3 min
- Ki [5]: > 30000 nM
- second-order rate constants (k2/Ki), order of magnitude [6]: ~10^3 M^−1 s^−1
- Ki [7]: 350 ± 7 nM
- t1/2 [8]: 21 ± 2 min
- inhibition of MBLs [9]: no significant inhibition
- t1/2 [10]: 5 ± 0.2 min
- Ki [11]: > 30000 nM
- Ki [12]: > 30000 nM

SMILES: C[C@]1(Cn2ccnn2)[C@H](C(=O)O)N2C(=O)C[C@H]2S1(=O)=O [tazobactam]
- fold reduction of cefepime MIC90 by addition of BLI ([13]; 14 isolates, subdivision 3): 2 fold
- fold reduction of ceftolozane MIC90 by addition of BLI ([13]; 14 isolates, subdivision 3): 4 fold

SMILES: NCCN[C@H]1CC[C@H](CC(=O)N[C@H]2Cc3cccc(C(=O)O)c3OB2O)CC1 [Taniborbactam]
- MIC [14]: ≥ 512 µg/mL
- antibacterial activity alone ([14]; taniborbactam alone): lacks antibacterial activity
- modal potentiation of partner cephalosporin MIC [15]: 512 fold
- Ki [1]: 17 ± 2 nM
- Ki [2]: 4 ± 1 nM
- Ki [3]: 2 ± 0.3 nM
- Ki [16]: 3 ± 0.2 nM
- t1/2 [4]: 30 ± 3 min
- Ki [5]: ≥ 30000 nM
- MIC90 ([13]; Pseudomonas aeruginosa, all 41 isolates of P. aeruginosa): 4 µg/mL
- MIC ([17]; ATCC27853, P. aeruginosa ATCC 27853, PDC-5): 1020 µg/mL
- MIC ([17]; P. aeruginosa CDC-0457, VIM): 1020 µg/mL
- MIC ([18]; ATCC25922, E. coli ATCC 25922, enzyme content None): 512 µg/mL
- MIC ([18]; E. coli CDC-0452, NDM): 512 µg/mL
- MIC ([18]; NCTC13353, E. coli NCTC 13353, CTX-M-15): 512 µg/mL
- MIC ([19]; ATCC13883, K. pneumoniae ATCC 13883, enzyme content None): 512 µg/mL
- MIC ([19]; BAA1705, K. pneumoniae BAA 1705, KPC-2): 1020 µg/mL
- Ki [7]: 350 ± 7 nM
- t1/2 [8]: 105 ± 5 min
- t1/2 [10]: 34 ± 2 min
- Ki [11]: 19 ± 1 nM
- inhibition, off-target ([20]; 128 of 129 in vitro assays): ≤ 23%
- inhibition ([20]; the one exception, a β-lactamase): > 50%
- MIC90 [21]: 1 µg/mL

SMILES: NC(=O)[C@@H]1CC[C@@H]2CN1C(=O)N2OS(=O)(=O)O [Avibactam]
- modal potentiation of partner cephalosporin MIC [15]: 64 fold
- Ki [1]: 11 ± 1 nM
- Ki [3]: 13 ± 0.3 nM
- t1/2 [4]: 249 ± 19 min
- Ki [5]: > 30000 nM
- t1/2 [8]: 66 ± 4 min
- inhibition of MBLs [9]: no significant inhibition
- t1/2 [10]: 29 ± 1 min
- Ki [11]: > 30000 nM
- Ki [12]: > 30000 nM

From article PMC7038240 (Antimicrobial Agents and Chemotherapy, 2020)
